Measurements reported in patent US7271239B2, “D-isomers of antimicrobial peptide” (The Research Foundation of State University of New York, priority 2004, dated 2007).
≈ marks a conversion by molar mass, not a printed value. Read-outs that look alike come from different tables or passages of the source. Where a SMILES comes first, the peptide text is derived from it.

How the values were obtained:
[1] = test system: S. mutans GS-5 1-day biofilm; assay type: cell-based, Streptococcus mutans
Experimental: FIG. 12. Effect of peptides on 1-day biofilm of S. mutans. One-day mature biofilm was prepared as described above. BHI medium supplemented with 1% sucrose (BHIS) with peptides, prepared in another microtiter plate, was then transferred to the biofilm plate. After further incubation at 37° C. for 24 h, the biofilm was fixed, stained, and quantified as describe above. Data represents mean and SD of two independent tests performed in duplicated. Empty bar: growth, solid bar: biofilm.
To examine the effects of the peptides on 1-day mature biofilm, S. mutans GS-5 was inoculated into the wells of another polystyrene microtiter plate containing BHIS at a volume of 200 μl per well. After incubation at 37° C. for 24 h, the culture supernatants from each well were decanted and planktonic cells were removed by washing with PBS. BHIS containing 0.78 to 100 μM peptides, prepared in another microtiter plate, was then transferred to the 1-day biofilm plate, and further incubated at 37° C. for one day. The biofilm was fixed, stained, and quantified as describe above.

[2] = test system: E. coli HB101; assay: microbe, parasite or virus in culture; assay type: cell-based, Escherichia coli
Source text: (§1) The bacteria used in this study included Streptococcus mutans ATCC10449, Streptococcus mutans AU 159, Streptococcus mutans GS-5, Streptococcus mutans GS-5 mutant (^gtf BCD), Streptococcus gordonii Challis, Porphyromonas gingivalis W50, Porphyromonas gingivalis 381, A. actinomycetemcomitans NCTC 9710, Pseudomonas aeruginosa ATCC 17648, and Escherichia coli HB101. One quarter strength (25%) of brain heart infusion broth (BHI, DIFCO Laboratories, Detroit, Mich.) was used for the growth of S. mutans, S. gordonii, A. actinomycetemcomitans, Ps. aeruginosa, and E. coli. For growth of P. gingivalis, tryptic soy broth-yeast extract medium (TSBY, DIFCO Laboratories, Detroit, Mich.) supplemented with cysteine hydrochloride (0.05%), menadione (0.02 μg/ml), hemin (5 μg/ml), and potassium nitrate (0.02%) was used. All bacteria were cultured at 37° C.; Ps. aeruginosa and E. coli were grown aerobically, and the other bacteria, anaerobically. To prepare bacterial cell suspension for antibacterial activity assays, each overnight culture was harvested by centrifuge (3783 g, 10 min), washed once with 10 mM sodium phosphate-buffered saline (PBS, pH 7.2), resuspended in PBS and adjusted to a concentration of 1×10^6 cells/mL.
(§2) MICs of the peptides were determined by broth microdilution method as previously described (5). Briefly, two-fold serial dilutions of each peptide were prepared with 25% BHI medium at a volume of 200 μl per well in 96-well flat-bottom microtiter plates (Costar, Cambridge, Mass.). The final concentration of the peptides ranged from 0.78 to 100 μM, and chlorhexidine (CHX), used as a positive control, from 20 to 0.16 μM (10 to 0.078 μg/mL). The microtiter plate was inoculated with bacterial cell suspension with final concentration of 5×10^6 CFU/mL for P. gingivalis and 5×10^5 CFU/mL for the other bacterial species. After incubation at 37° C. for 48 h, the absorbance was measured at 595 nm by using a microplate reader (Model 3550, Bio-Rad, Japan) to assess the cell growth. […] The MIC value represents the median of at least three independent experiments. The minimal bactericidal concentration (MBC) was determined as follows. Aliquot (100 μl) of cell suspension was taken from two wells above MIC, centrifuged, and washed three times with PBS. Then each cell suspension was plated on TSBY agar plate, and bacterial cells were enumerated after incubation at 37° C. for 48 h. The MBC was defined as the lowest concentration of the peptide at which more than 99.9% of cells were killed compared to non-treated control.

[3] = test system: S. gordonii Challis; assay: microbe, parasite or virus in culture; assay type: cell-based, Streptococcus gordonii
Source text: as §1, §2

[4] = test system: S. mutans GS-5; assay: Time-kill assay; assay type: cell-based, Streptococcus mutans; conditions: after 4 h incubation, each agent at its MIC
Experimental: FIG. 10. Time-Killing curves for S. mutans. […] Control (▪), MUC7 12-mer-L (Δ), MUC7 12-mer-D (□), MUC7 20-mer (▴), Hsn5 12-mer (×), magainin II (●), chlorhexidine (◯).
For the peptides MUC7 12-mer-L, MUC7 12-mer-D, and MUC7 20-mer, time-kill kinetic studies against S. mutans were performed by the broth macrodilution method. S. mutans GS-5 (1×10^6 CFU/ml) and antibacterial agens (find concentrations of 12.5 μM for each peptide, and 2 μM for CHX; their MICs) were incubated in 25% BHI at 37° C. At the time of 0, 1, 2, 4, 8, and 24 h, samples were taken and viable counts determined as follows: The samples were serially diluted (10^−1 to 10^−4) in sterile 10 mM PBS (pH 7.2) and 50 μl aliquots were plated onto TSBY agar. The plates were incubated anaerobically at 37° C. for 48 h, followed by enumerating the CFU. Killing curves were constructed by plotting the log10 CFU per milliliter versus time over 24 h. All assays were done in duplicate on at least two occasions.

[5] = test system: A. actinomycetemcomitans NCTC 9710; assay: microbe, parasite or virus in culture; assay type: cell-based
Source text: as §1, §2

[6] = test system: P. gingivalis; assay: microbe, parasite or virus in culture; assay type: cell-based, Porphyromonas gingivalis
Source text: as §1, §2

[7] = test system: Ps. aeruginosa ATCC 17648; assay: microbe, parasite or virus in culture; assay type: cell-based, Pseudomonas aeruginosa; conditions: ATCC 17648
Source text: as §1, §2

[8] = test system: S. mutans GS-5 biofilm; assay type: cell-based, Streptococcus mutans
Experimental: FIG. 11. Effect of peptides on the biofilm formation of S. mutans. The bacterial cells (5×10^5 cfu ml^−1) were inoculated in 96-well microtiter plate containing 25% BHIS medium with different concentration of each agent. Culture without agent was used as no treatment control. After incubation at 37° C. for 24 h, absorbance at 595 nm was recorded to assess the cell growth. Biofilm assay was performed by discarding the supernatants, washing with PBS, fixing with methanol, and staining with CV. The absorbance at 570 nm was recorded to assess the amount of biofilm. The activity was expressed as % of control. Data represents mean and SD of two independent tests with duplicates for each. Empty bar: growth, solid bar: biofilm.
The effect of the peptides on S. mutans in biofilm formation was examined by the microdilution method. This method is similar to the MIC assay for planktonic cells. Two-fold serial dilutions of each peptide were prepared in wells of polystyrene microtiter plates (Microtest tissue culture plate, 96 well, Falcon, Becton Dickinson and Company, N.J.) containing 25% BHI medium supplemented with 1% sucrose (BHIS) at a volume of 200 μl per well. The final concentration of the peptide ranged from 0.78 to 100 μM for each peptide. Chlorhexidine (CHX, 0.078 to 10 μg/mL) was used as the positive control, the medium without drug as the non-treated control, and the medium alone as the blank control. The cells suspension of S. mutans GS-5 was prepared as describe in MIC assay and 20 μl aliquot (final concentration of cells 5×10^5 CFU/mL) was inoculated to the wells of polystyrene microtiter plates. After incubation at 37° C. for 20 h, the culture supernatants from each well were decanted and planktonic cells were removed by washing with PBS, pH 7.2. The biofilm was fixed with methanol for 15 min and then air dried at room temperature. The biofilm was then stained with 0.1% (wt/vol) crystal violet (Sigma) for 5 min. and rinsed thoroughly with water until the control wells appeared colorless. Biofilm formation was quantified by the addition of 200 μl of 95% ethanol to each crystal violet-stained well. The plate was rocked at room temperature for 30 min and the absorbance at 595 nm (A595 nm) was determined with a microplate reader (BioRad Model 3550 Microplate Reader). Percentage of inhibition was calculated with the equation: (1−A595 nm of the test/A595nm of non-treated control)×100.

[9] = test system: S. mutans; assay: microbe, parasite or virus in culture; conditions: median of four strains
Source text: as §1, §2

## CC[C@H](C)[C@H](NC(=O)[C@H](Cc1ccccc1)NC(=O)[C@@H]1CCCN1C(=O)[C@H](CCCCN)NC(=O)[C@H](CCC(N)=O)NC(=O)[C@H](Cc1c[nH]cn1)NC(=O)[C@H](C)NC(=O)[C@@H](N)CC(C)C)C(=O)N[C@@H](CCCNC(=N)N)C(=O)N[C@@H](CCCCN)C(=O)N[C@@H](CO)C(=O)N[C@@H](Cc1ccc(O)cc1)C(=O)N[C@@H](CCCCN)C(=O)N[C@@H](CS)C(=O)N[C@@H](CC(C)C)C(=O)N[C@@H](Cc1c[nH]cn1)C(=O)N[C@@H](CCCCN)C(=O)N[C@@H](CCCNC(=N)N)C(=O)N[C@@H](CS)C(=O)N[C@@H](CCCNC(=N)N)C(=O)O [MUC7 20-mer] (H-LAHQKPFIRKSYKCLHKRCR-OH; N-terminus and C-terminus assumed)
[1]
  MBEC50 (μg/ml): 62 µg/mL
[1]; GS-5 1-day biofilm, 24 h
  MBEC50 (μM): 25 µM
[1]; at or more than MBEC50
  eradication of 1-day developed biofilm: reduction of biofilm was observed
[2]
  MBC (μM): 100.0 µM (≈ 251 µg/mL)
  MIC (μM): 100.0 µM (≈ 251 µg/mL)
[3]
  MBC (μM): 25.0 µM (≈ 62.8 µg/mL)
  MBC (μg/ml): 62.8 µg/mL (≈ 25 µM)
  MIC (μM): 12.5 µM (≈ 31.4 µg/mL)
  MIC (μg/ml): 31.4 µg/mL (≈ 12.5 µM)
[4]
  reduction of the viable counts of S. mutans: 2 log10
[5]
  MBC (μg/ml): 251.3 µg/mL (≈ 100 µM)
  MIC (μg/ml): 251.3 µg/mL (≈ 100 µM)
[5]; NCTC 9710
  MBC (μM): 100.0 µM (≈ 251 µg/mL)
  MIC (μM): 100.0 µM (≈ 251 µg/mL)
[6]
  MIC (μM): >100 µM
  MIC (μg/ml): >251 µg/mL
[7]
  MBC (μM): >100 µM
  MBC (μg/ml): >251 µg/mL
  MIC (μM): >100 µM
  MIC (μg/ml): >251 µg/mL
[8]
  MBIC50: 15.5 µg/mL
[8]; GS-5 biofilm, 24 h
  MBIC50: 6.25 µM
[9]
  MBC (μM): 12.5 µM (≈ 31.4 µg/mL)
  MBC (μg/ml): 31.4 µg/mL (≈ 12.5 µM)
